Measurements published in US20250034216A1, “STEREOSELECTIVE COVALENT LIGANDS FOR ONCOGENIC AND IMMUNOLOGICAL PROTEINS” (The Scripps Research Institute, priority 2021, published 2025).

What was measured:
Assay in all cases: IA-DTB cysteine engagement
Assay type in all cases: binding
Conditions in all cases: 22Rv1 cells, 20 μM probe, 1 h, relative to DMSO
VPS18_C522 = target: T1, VPS18_C522 (Homo sapiens, UniProt Q9P253)
T1 construct: endogenous in cells; host or cells: 22Rv1
T1 sequence (Q9P253 1-973): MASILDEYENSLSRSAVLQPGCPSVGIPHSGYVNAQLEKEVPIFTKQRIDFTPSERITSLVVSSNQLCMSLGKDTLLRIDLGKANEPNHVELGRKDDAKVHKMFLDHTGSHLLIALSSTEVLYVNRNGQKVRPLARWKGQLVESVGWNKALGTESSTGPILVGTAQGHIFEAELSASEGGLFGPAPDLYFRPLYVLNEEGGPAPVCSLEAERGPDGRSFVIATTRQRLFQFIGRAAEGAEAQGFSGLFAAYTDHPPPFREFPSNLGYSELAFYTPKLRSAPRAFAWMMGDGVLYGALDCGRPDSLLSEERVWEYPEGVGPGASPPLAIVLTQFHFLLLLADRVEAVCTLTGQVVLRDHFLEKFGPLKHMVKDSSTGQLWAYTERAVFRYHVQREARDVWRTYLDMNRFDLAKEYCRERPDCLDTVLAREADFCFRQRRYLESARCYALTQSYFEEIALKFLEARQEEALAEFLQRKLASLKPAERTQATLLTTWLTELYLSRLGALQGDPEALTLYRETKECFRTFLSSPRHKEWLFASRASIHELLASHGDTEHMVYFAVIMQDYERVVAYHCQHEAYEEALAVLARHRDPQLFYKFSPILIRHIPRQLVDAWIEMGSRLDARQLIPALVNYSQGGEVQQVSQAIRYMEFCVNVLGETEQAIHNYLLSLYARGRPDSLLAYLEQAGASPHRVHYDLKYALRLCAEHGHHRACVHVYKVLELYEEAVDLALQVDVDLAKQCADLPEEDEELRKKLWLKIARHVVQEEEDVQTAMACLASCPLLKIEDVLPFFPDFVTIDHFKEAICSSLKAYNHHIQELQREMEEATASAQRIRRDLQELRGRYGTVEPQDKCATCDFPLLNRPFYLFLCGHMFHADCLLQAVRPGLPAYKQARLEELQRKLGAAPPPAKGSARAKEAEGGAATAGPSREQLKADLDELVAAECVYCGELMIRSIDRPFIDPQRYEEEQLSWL
Method: (§1) Sample preparation: Cells (adherent: 15 cm dishes, suspension: 2 million cells/mL) were treated with electrophilic probes in situ for indicated times and concentrations, washed with ice-cold PBS, and flash frozen in liquid nitrogen. Cell pellets were lysed by sonication (8 pulses, 40% power) in 500 μL ice-cold PBS supplemented with cOmplete protease inhibitors (1 tablet/10 mL of PBS). Whole cell lysates protein content was measured using a standard DC protein assay (Bio-Rad) and 500 μL (2 mg/mL protein content) were treated with 5 μL of 10 mM 1A-DTB (in DMSO) for 1 h at ambient temperature with occasional vortexing. Samples were methanol-chloroform precipitated with the addition of 500 μL ice-cold MeOH and 200 μL CHCl3, vortexed, and centrifuged (10 min, 10,000 g). Without disrupting the protein disk, both top and bottom layers were aspirated and the protein disk was washed with 1 mL ice-cold MeOH and centrifuged (10 min, 10,000 g). The pellets were allowed to air dry, and then re-suspended in 90 μL buffer (9 M urea, 10 mM DTT, 50 mM TEAB pH 8.5). Samples were reduced by heating at 65 C for 20 minutes and water bath sonicated as needed to resuspend the protein pellets, followed by alkylation via addition of 10 μL (500 mM) iodoacetamide and incubated at 37 C for 30 min with shaking. Samples were briefly centrifuged, and probe sonicated once more to ensure complete resuspension, and then diluted with 300 μL buffer (50 mM TEAB pH 8.5) to reach final concentration of 2 M urea. Trypsin (4 μL of 0.25 μg/μL in trypsin resuspension buffer with 25 mM CaCl2)) was added to each sample and digested at 37 C for 2 h to overnight. Digested samples were then diluted with 300 μL wash buffer (50 mM TEAB pH 8.5, 150 mM NaCl, 0.2% NP-40) containing streptavidin-agarose beads (50 μL of 50% slurry in wash buffer) and were rotated at room temperature for 2 hours. Enriched samples were pelleted by centrifugation (2000 g, 2 min) and transferred to BioSpin columns and washed (3×1 mL wash buffer, 3×1 mL PBS, 3×1 mL water). Enriched peptides were eluted by 300 μL 50% acetonitrile with 0.1% formic acid and eluate was evaporated to dryness via speedvac. IA-DTB labeled and enriched peptides were resuspended in 100 μL EPPS buffer (200 mM, pH 8.0) with 30% acetonitrile, vortexed, and water bath sonicated. Samples were TMT labeled with 3 μL of corresponding TMT tag (5 mg tag resuspended in 256 μL acetonitrile), vortexed, and incubated at room temperature for 1 hour. TMT labeling was quenched with the addition of hydroxylamine (5 μL 5% solution in H2O) and incubated for 15 minutes at room temperature. Samples were then acidified with 5 μL formic acid, combined and dried using a SpeedVac. Samples were desalted via Sep-Pak and then high pH fractionated.
(§2) Data processing: Cysteine engagement ratios (probe vs DMSO) were calculated for each peptide-spectra match by dividing each TMT reporter ion intensity by the average intensity for the channels corresponding to DMSO treatment. Peptide-spectra matches were then grouped based on protein ID and residue number (e.g., PSME1 C22), excluding peptides with summed reporter ion intensities for the DMSO channels <10,000, coefficient of variation for DMSO channels >0.5, and non-tryptic peptide sequences. TMT reporter ion intensities were normalized to the median summed signal intensity across channels.
(§3) Filtering of cysteine data: Replicates were combined based on cell line and treatment condition (probe, concentration, duration) by averaging cysteine engagement ratios across all experiments.

PRRT3_C720 = target: T2, PRRT3_C720 (Homo sapiens, UniProt Q5FWE3)
T2 construct: endogenous in cells; host or cells: 22Rv1
T2 sequence (Q5FWE3 28-981): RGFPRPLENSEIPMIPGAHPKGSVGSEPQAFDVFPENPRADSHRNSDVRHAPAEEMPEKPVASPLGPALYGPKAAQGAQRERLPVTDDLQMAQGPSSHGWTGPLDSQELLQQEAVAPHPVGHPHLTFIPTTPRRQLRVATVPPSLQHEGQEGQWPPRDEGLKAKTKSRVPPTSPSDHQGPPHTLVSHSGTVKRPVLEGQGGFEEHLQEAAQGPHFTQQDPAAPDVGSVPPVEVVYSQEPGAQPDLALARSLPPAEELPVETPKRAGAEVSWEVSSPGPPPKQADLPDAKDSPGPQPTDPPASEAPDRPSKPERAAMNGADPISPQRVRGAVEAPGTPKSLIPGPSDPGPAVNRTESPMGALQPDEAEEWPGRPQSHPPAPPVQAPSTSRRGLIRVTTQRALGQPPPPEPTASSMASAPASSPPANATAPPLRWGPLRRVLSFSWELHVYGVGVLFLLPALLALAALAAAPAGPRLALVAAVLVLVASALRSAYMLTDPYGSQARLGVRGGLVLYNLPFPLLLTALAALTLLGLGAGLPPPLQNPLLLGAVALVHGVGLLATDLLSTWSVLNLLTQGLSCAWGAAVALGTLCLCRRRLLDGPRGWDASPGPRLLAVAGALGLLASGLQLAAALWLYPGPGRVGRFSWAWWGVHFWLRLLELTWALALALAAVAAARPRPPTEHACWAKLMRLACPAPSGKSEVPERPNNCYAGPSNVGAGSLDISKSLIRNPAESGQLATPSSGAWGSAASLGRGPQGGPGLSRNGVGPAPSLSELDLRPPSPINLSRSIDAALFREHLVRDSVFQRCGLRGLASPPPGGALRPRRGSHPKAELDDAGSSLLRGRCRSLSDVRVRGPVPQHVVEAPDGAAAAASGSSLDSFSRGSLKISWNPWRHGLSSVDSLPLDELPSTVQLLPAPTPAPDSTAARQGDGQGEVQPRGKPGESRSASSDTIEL
Method: as §1, §2, §3

ZNF346_C68 = target: T3, ZNF346_C68 (Homo sapiens, UniProt Q9UL40)
T3 construct: endogenous in cells; host or cells: 22Rv1
T3 sequence (Q9UL40 1-294): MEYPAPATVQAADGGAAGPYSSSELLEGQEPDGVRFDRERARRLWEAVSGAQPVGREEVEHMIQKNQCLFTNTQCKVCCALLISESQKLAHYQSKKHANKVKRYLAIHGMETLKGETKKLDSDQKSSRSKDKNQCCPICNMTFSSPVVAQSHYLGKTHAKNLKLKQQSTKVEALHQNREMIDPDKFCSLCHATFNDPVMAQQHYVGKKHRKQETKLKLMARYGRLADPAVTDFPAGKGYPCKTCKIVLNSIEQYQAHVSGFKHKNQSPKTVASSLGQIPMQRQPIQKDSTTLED
Method: as §1, §2, §3

BCKDK_C111 = target: T4, BCKDK_C111 (Homo sapiens, UniProt O14874)
T4 construct: endogenous in cells; host or cells: 22Rv1
Method: as §1, §2, §3

% engagement VPS18_C522 (VPS18_C522) | % engagement PRRT3_C720 (PRRT3_C720) | % engagement ZNF346_C68 (ZNF346_C68) | % engagement BCKDK_C111 (BCKDK_C111) | SMILES
21% | 71% | 45.25% | 76.75% | C=CC(=O)N1C[C@H](c2ccc(Br)cc2)[C@H]1C(=O)Nc1cccc2cccnc12 [MY-3B, (2S,3S)-1-acryloyl-3-(4-bromophenyl)-N-(quinolin-8-yl)azetidine-2-carboxamide]
45% | 53% | 37% | 14.5% | C=CC(=O)N1C[C@H](c2ccc(Br)cc2)[C@@H]1C(=O)Nc1cccc2cccnc12 [MY-1B, (2R,3S)-1-acryloyl-3-(4-bromophenyl)-N-(quinolin-8-yl)azetidine-2-carboxamide]
88% | 45.5% | 14% | 19.5% | C=CC(=O)N1C[C@H](c2ccc(Br)cc2)[C@H]1C(=O)Nc1cccc2cccnc12 [MY-3A, (2S,3S)-1-acryloyl-3-(4-bromophenyl)-N-(quinolin-8-yl)azetidine-2-carboxamide]
−22% | 47% | 95.5% | 17.25% | C=CC(=O)N1C[C@@H](c2ccc(Br)cc2)[C@H]1C(=O)Nc1cccc2cccnc12 [MY-1A, (2S,3R)-1-acryloyl-3-(4-bromophenyl)-N-(quinolin-8-yl)azetidine-2-carboxamide]
